From patent US8889848B2, “HCV genotype 3 replicons” (priority 2011, dated 2014)
Like-named read-outs stand apart in the source and are kept apart here.

Assays:
Format in all cases: cell-based, HCV
[1] = system: genotype 1b Pi-Rluc replicon; test: Transient replicon antiviral assay, Pi-Rluc-GT1b in 1C cells; conditions: transient transfection, 3 days, renilla luciferase, mean of at least two experiments
Method: (§1) Replicon RNA were electroporated into 1C cells as described above. After transfection, cells were quickly transferred into 100 mL of pre-warmed culture medium, and 90 μl was seeded in 384-well plates at a density of 2,000 cells/well. Cells were treated with three-fold serial drug dilutions at 10 different concentrations. Cell plates were incubated at 37° C. for 3 days, after which culture medium was removed and cells were assayed for luciferase activity as markers for replicon levels. Luciferase expression was quantified using a commercial luciferase assay (Promega). Luciferase levels were converted into percentages relative to the levels in the untreated controls (defined as 100%), and data were fitted to the logistic dose-response equation y=a/[1+(x/b)^c] using XLFit4 software (IDBS, Emeryville, Calif.).
(§2) To investigate antiviral activity against genotype 3a, five different classes of HCV inhibitors were tested in a transient assay of the genotype 3a Pi-Rluc replicon: NS3 protease, NS5A, NS5B active site, NS5B non-active site, and host factor inhibitors. A standard genotype 1b Pi-Rluc replicon was tested in parallel. The transient replicon replication assays were performed in 1C cells to minimize the potential influence of host cell difference on compound antiviral activities. EC50 values against both genotype 1b and genotype 3a replicons were successfully generated for all inhibitors using a high-throughput 384-well assay measuring Rluc activity (Table 10).
(§3) Five different classes of HCV inhibitors as listed in the first column were evaluated for their antiviral activities against GT1b and GT3a Pi-Rluc replicon in a transient transfection high-throughput 384-well format by measuring renilla luciferase activity. Data presented in the table represent the mean of at least two independent experiments.

[2] = system: Pi-Rluc-GT3a-P89L/K583E replicon; test: Transient replicon antiviral assay, Pi-Rluc-GT3a-P89L/K583E in 1C cells; conditions: for GT3a(P89L/K583E)/Ib EC50 Ratio: EC50 GT3a P89L/K583E divided by EC50 GT1b; for EC50: transient transfection, 1C cells, 3 days, renilla luciferase, mean of at least two experiments
Method: as §1, §2, §3

[3] = system: Pi-Rluc-GT3a-P89L/A166T replicon; test: Transient replicon antiviral assay, Pi-Rluc-GT3a-P89L/A166T in 1C cells; conditions: for GT3a(P89L/A166T)/Ib EC50 Ratio: EC50 GT3a P89L/A166T divided by EC50 GT1b; for EC50: transient transfection, 1C cells, 3 days, renilla luciferase, mean of at least two experiments
Method: as §1, §2, §3

[4] = system: genotype 3a Pi-Rluc replicon; test: Transient genotype 3a Pi-Rluc replicon assay, summary over both GT3a replicons; conditions: for EC50: read-out: EC50 values against genotype 3a
Method: as §1, §2

SMILES | EC50 ([1]; Hepatitis C virus, 72 h) | GT3a(P89L/K583E)/Ib EC50 Ratio [2] | EC50 ([2]; Hepatitis C virus, GT3A, 72 h) | GT3a(P89L/A166T)/Ib EC50 Ratio [3] | EC50 ([3]; Hepatitis C virus, GT3A, 72 h) | fold more active against genotype 3a compared with genotype 1b ([4]; transient Pi-Rluc replicons) | EC50 [1] | EC50 [2] | EC50 [3] | fold less active (less potent) against genotype 3a versus genotype 1b ([4]; transient Pi-Rluc replicons) | EC50 ([4]; Hepatitis C virus) | EC50 ([4]; range over the two GT3a Pi-Rluc replicons) | potency against genotype 1b and 3a replicons compared (in words) ([4]; transient Pi-Rluc replicons)
C=C[C@@H]1C[C@]1(NC(=O)[C@@H]1C[C@@H]2CN1C(=O)[C@H](C(C)(C)C)NC(=O)O[C@@H]1C[C@H]1CCCCCc1nc3ccc(OC)cc3nc1O2)C(=O)NS(=O)(=O)C1CC1 [MK-5172] | 0.81 nM | 28 | 23 nM | 74 | 60 nM |  |  |  |  |  |  |  | 
CN(C)CCN(C)[C@H]1COc2ccccc2-c2c(C3CCCCC3)c3ccc(C(=O)O)cc3n2C1 [MK-3281] | 587 nM | 0.31 | 180 nM | 0.47 | 277 nM | about 2 fold |  |  |  |  |  |  | 
CNC(=O)c1c(-c2ccc(F)cc2)oc2cc(N(CCO)S(C)(=O)=O)c(C3CC3)cc12 [HCV-796] | 20 nM | 0.12 | 2.4 nM | 0.14 | 2.8 nM | ~7 fold |  |  |  |  |  |  | 
CC(C)OC(=O)[C@H](C)N[P@](=O)(OC[C@H]1O[C@@H](n2ccc(=O)[nH]c2=O)[C@](C)(F)[C@@H]1O)Oc1ccccc1 [GS-7977] |  | 0.15 |  | 0.31 |  |  | 40 nM | 5.8 nM | 12 nM |  |  |  | 
Fc1ccccc1-c1nc2ccn(Cc3ccc(-c4ccc(C(F)(F)F)cc4C(F)(F)F)nn3)cc-2n1 [GS-9190] |  | 18 |  | 17 |  |  | 3 nM | 46 nM | 42 nM | approximately 17 fold |  |  | 
COC(=O)N[C@H](C(=O)N1CCC[C@H]1c1nc(-c2ccc(-c3ccc(-c4c[nH]c([C@@H]5CCCN5C(=O)[C@@H](NC(=O)OC)C(C)C)n4)cc3)cc2)c[nH]1)C(C)C [BMS-790052] | 0.03 nM | 15 | 0.45 nM | 11 | 0.31 nM |  |  |  |  | 11 fold | 0.31 to 0.45 nM |  | 
COC(=O)N[C@H](C(=O)N1CC2(CC2)C[C@H]1c1nc(-c2ccc3c(c2)C(F)(F)c2cc(-c4ccc5[nH]c([C@@H]6[C@H]7CC[C@H](C7)N6C(=O)[C@@H](NC(=O)OC)C(C)C)nc5c4)ccc2-3)c[nH]1)C(C)C [GS-5885] |  | 9758 |  | 22370 |  |  | 0.0041 nM | 40 nM | 92 nM | approximately 10.000 fold |  | 40 to 92 nM | 
CCC[C@H](NC(=O)[C@@H]1[C@H]2CCC[C@H]2CN1C(=O)[C@@H](NC(=O)[C@@H](NC(=O)c1cnccn1)C1CCCCC1)C(C)(C)C)C(=O)C(=O)NC1CC1 [Telaprevir, telaprevir] | 407 nM | 3.27 | 1330 nM | 1.6 | 650 nM |  |  |  |  |  |  |  | 
CC(C)(C)NC(=O)N[C@H](C(=O)N1C[C@H]2[C@@H]([C@H]1C(=O)NC(CC1CCC1)C(=O)C(N)=O)C2(C)C)C(C)(C)C (stereo partly shown) [Boceprevir, boceprevir] |  | 1.45 | 273 nM | 2.44 | 460 nM |  |  |  |  |  |  |  | 
COc1ccc2c(O[C@@H]3C[C@H]4C(=O)N[C@]5(C(=O)O)C[C@H]5/C=C\CCCCC[C@H](NC(=O)OC5CCCC5)C(=O)N4C3)cc(-c3csc(NC(C)C)n3)nc2c1 [BILN-2061] | 0.93 nM | 102 | 95 nM | 478 | 447 nM |  |  |  |  |  |  |  | 
CC[C@@H]1C[C@]1(NC(=O)[C@@H]1C[C@@H](Oc2cc(-c3csc(NC(C)C)n3)nc3c(Cl)c(OCCN4CCOCC4)ccc23)CN1C(=O)[C@@H](NC(=O)O[C@@H]1C[C@@H]2C[C@@H]2C1)C(C)(C)C)C(=O)O [GS-9451] |  | 97 |  | 173 |  |  | 10 nM | 921 nM | 1650 nM |  |  |  | 
CCc1cc(CC[C@]2(C3CCCC3)CC(O)=C(Cc3nc4nc(C)cc(C)n4n3)C(=O)O2)cc(CC)n1 [Filibuvir, filibuvir] | 121 nM | 7.4 | 895 nM | 17 | 2040 nM |  |  |  |  | approximately 17 fold |  |  | 
CC1=CC[C@H](C(=O)N(c2cc(C#CC(C)(C)C)sc2C(=O)O)[C@H]2CC[C@](O)(CO[C@H]3CCOC3)CC2)CC1 [GS-9669] |  | 33 |  | 61 |  |  | 3.8 nM | 125 nM | 230 nM | ~60 fold |  |  | 
C/C=C/C[C@@H](C)[C@@H](O)[C@H]1C(=O)N[C@@H](CC)C(=O)N(C)[C@H](SCCN(C)C)C(=O)N(C)[C@@H](CC(C)(C)O)C(=O)N[C@@H](C(C)C)C(=O)N(C)[C@@H](CC(C)C)C(=O)N[C@@H](C)C(=O)N[C@H](C)C(=O)N(C)[C@@H](CC(C)C)C(=O)N(C)[C@@H](CC(C)C)C(=O)N(C)[C@@H](C(C)C)C(=O)N1C [SCY-635] | 65 nM | 0.91 | 59 nM | 1.2 | 78 nM |  |  |  |  |  |  |  | equivalent potency
